Measurements published in US12473249B2, “Aromatic compounds and pharmaceutical uses thereof” (BASF AS, priority 2018, dated 2025).

Legend:
ob/ob AMLN mice = assay: Glycemic control (oral glucose tolerance test, fasting glucose and insulin) in ob/ob AMLN mice; format: in vivo, mouse; conditions: 0.3 mmol/kg bw day
Protocol: ob/ob mice are consistently fibrosis (liver) prone when cholesterol (2%) and 40% fat (containing 18% trans-fatty acids) and 20% fructose are added to a high-caloric diet (i.e., AMLN diet). ob/ob mice on AMLN diet (termed ‘ob/ob AMLN mice’) develop steatohepatitis and fibrosis within a shorter timeframe (<12 weeks) compared with wild-type C57BL/6 mice (AMLN mice) fed the same diet. ob/ob AMLN mice provide an obese diet-induced model of NASH that also allows the study of effects on glycemic control.
Thirty male ob/ob mice (5 weeks old) were fed the AMLN diet for 15 weeks then randomised into 3 groups of 10 mice/group to receive Compound B or Compound A (both at 0.3 mmol/kg bw day) or no treatment (vehicle) for a further 4 weeks. Assessment of the hepatic expression of key genes regulating plasma lipid concentrations (LDLr), hepatic fibrosis (collA1), bile acid transport/re-uptake (Slc51b and Slc10a2) and inflammation (CD68) was made via RNA sequencing at 4 weeks. […] An additional group of mice (n=5) were also treated with a PPAR-γ agonist (pioglitazone, 30 mg/kg bw day) was also included to compare effects upon bodyweight.

C57BL/6 mice = assay: Hepatic steatosis and organ mass in oral PN diet fed C57BL/6 mice, subsequent experiment at two dosages (H&E); format: in vivo, mouse; conditions: 19 days
From the text: Male C57BL/6 mice, 6 to 8 weeks old at initiation of the experiments, were used for all experimental groups. Mice were fed either an ad libitum diet of standard rodent chow (calorie composition: 26% protein, 14% fat, 60% carbohydrates) and water or a parenteral nutrition (PN) solution that mimics the PN diet used in neonatal intensive care units. The PN solution was a fat-free, high-carbohydrate liquid diet (20% dextrose, 2% essential and nonessential amino acids, 0.2% pediatric trace elements, 0.5% pediatric multivitamins, 30 mEq of sodium, 20 mEq of potassium, 15 mEq of calcium (as calcium gluconate), 10 mEq of magnesium, 10 mEq of phosphate, 5 mEq of acetate, and 30 mEq of chloride per liter) administered as a single 50 mL bottle per cage which mice consumed ad libitum. […] Prince et al., JPEN J Parenter Enteral Nutr., 2014; 38(5): 608-616.
In a subsequent experiment, both Compound A and Compound B were tested at two dosages. The results of this experiment are described in Example 15.
Male C57BL/6 mice, 6 to 8 weeks old at initiation of the experiments, were used for all experimental groups. One group was fed an ad libitum diet of standard rodent chow and water. The group fed standard rodent chow received no additional treatments during the experimental period and served as a negative control group. Seven other groups (10 mice per group) were fed the PN solution described above ad libitum.
Of the seven groups that received the PN diet, each group received one of the following orogastric protocols administered every other day over 19 days: • (1) Saline: saline solution administered isovolumetric with the Omegaven® group; • (2) MCT: medium-chain triglyceride oil (MCT) (Nestle™ HealthCare Nutrition, Florham Park, NJ), at a dose of 7.4 g of fat/kg body weight; • (3) Omegaven®: Omegaven® (commercial fish oil lipid emulsion) at a dose of 2.4 g fat/kg body weight; • (4) Compound A LOW: Compound A at a dose of 0.3 mmol/kg bw day (diluted in MCT to 0.0375 mmol/mL, resulting in administration of 7.4 g of MCT/kg weight); • (5) Compound A HI: Compound A at a dose of 0.6 mmol/kg bw day (diluted in MCT to 0.075 mmol/mL, resulting in administration of 7.4 g of MCT/kg weight); • (6) Compound B LOW: Compound B at a dose of 0.3 mmol/kg bw day (diluted in MCT to 0.0375 mmol/mL, resulting in administration of 7.4 g of MCT/kg weight); and • (7) Compound B HI: Compound B at a dose of 0.6 mmol/kg bw day (diluted in MCT to 0.075 mmol/mL, resulting in administration of 7.4 g of MCT/kg weight).
After 19 days of treatment, organs were harvested, including the liver, kidney, and spleen, which were analyzed for relative weight between each group. Livers were also fixed and frozen on dry ice, then stored at −80° C. for hematoxylin and eosin (H&E) stain analysis and Oil Red O analysis.

[1] = oral PN diet, high and low dosages, FIG. 18

## CCCCCOc1cccc(C(=O)O)c1C [Compound A, 2-methyl-3-(pentyloxy)benzoic acid]
ob/ob AMLN mice; after 3 weeks treatment, FIG. 1
  total plasma glucose (area-under-the-curve from 0-240 mins) versus vehicle in response to an oral glucose load: significantly reduce
ob/ob AMLN mice; after 3 weeks treatment, FIG. 2
  plasma glucose at 30- and 60-mins versus vehicle in response to an oral glucose load: significantly reduce
ob/ob AMLN mice; after 4 weeks treatment, FIG. 3
  fasting plasma insulin versus vehicle: reduce
ob/ob AMLN mice; after 4 weeks treatment, FIG. 4
  fasting plasma glucose versus vehicle: significantly reduce
C57BL/6 mice; 0.3 and 0.6 mmol/kg bw day in MCT by orogastric gavage, FIGS. 14-17
  development of steatosis induced by an oral PN diet (H&E stain in isolated liver sections): prevented the development of steatosis
C57BL/6 mice; [1]
  body mass vs chow-fed or PN-fed saline groups: not significantly different
  liver/body mass vs chow-fed or PN-fed saline groups: not significantly different
  spleen/body mass vs chow-fed or PN-fed saline groups: not significantly different
